Among the data in patent US7973181B2, “Hydroxamic acid derivatives as inhibitors of HDAC enzymatic activity” (Chroma Therapeutics Ltd., priority 2005, dated 2011) are IC50 values, retold here.

Assay [1] deals with histone deacetylase activity (HeLa nuclear extract). Description: HDAC fluorescent activity assay (Biomol Fluor de Lys), HeLa nuclear extract. Format: biochemical. To be noted: Fluor de Lys substrate. The method, then:
The ability of compounds to inhibit histone deacetylase activities was measured using the commercially available HDAC fluorescent activity assay from Biomol. In brief, the Fluor de Lys™ substrate, a lysine with an epsilon-amino acetylation, is incubated with the source of histone deacetylase activity (HeLa nuclear extract) in the presence or absence of inhibitor.
Deacetylation of the substrate sensitises the substrate to Fluor de Lys™ developer, which generates a fluorophore. Thus, incubation of the substrate with a source of HDAC activity results in an increase in signal that is diminished in the presence of an HDAC inhibitor.
Data are expressed as a percentage of the control, measured in the absence of inhibitor, with background signal being subtracted from all samples, as follows: — % activity=((S^i−B)/(S^o−B))×100 where S^i is the signal in the presence of substrate, enzyme and inhibitor, S^o is the signal in the presence of substrate, enzyme and the vehicle in which the inhibitor is dissolved, and B is the background signal measured in the absence of enzyme.
(§1) IC50 values were determined by non-linear regression analysis, after fitting the results of eight data points to the equation for sigmoidal dose response with variable slope (% activity against log concentration of compound), using Graphpad Prism software.
Histone deacetylase activity from crude nuclear extract derived from HeLa cells was used for screening. The preparation, purchased from 4C (Seneffe, Belgium), was prepared from HeLa cells harvested whilst in exponential growth phase. The nuclear extract is prepared according to Dignam JD1983 Nucl. Acid. Res. 11, 1475-1489, snap frozen in liquid nitrogen and stored at −80° C. The final buffer composition was 20 mM Hepes, 100 mM KCl, 0.2 mM EDTA, 0.5 mM DTT, 0.2 mM PMSF and 20% (v/v) glycerol.
Results of testing the compounds of the examples in this assay are given in the second column of Table 1 below.

For a further assay, the system named is U937. Description: Cell inhibition assay (SRB cell viability), U937. Format: cell-based. To be noted: U937 cells. The method, then:
(§2) The corresponding cancer cell lines (Hela, U937 and HUT) growing in log phase were harvested and seeded at 1000 cells/well (200 ul final volume) into 96-well tissue culture plates. Following 24 h of cell growth cells were treated with compounds (final concentration of 20 uM). Plates were then re-incubated for a further 72 h before a sulphorhodamine B (SRB) cell viability assay was conducted according to Skehan 1990 J Natl Canc Inst 82, 1107-1112.
(§3) Data were expressed as a percentage inhibition of the control, measured in the absence of inhibitor, as follows: — % inhibition=100−((S^i/S^o)×100) where S^i is the signal in the presence of inhibitor and S^o is the signal in the presence of DMSO.
as §1
(§4) Results of testing the compounds of the examples in this assay are given in the third- fifth columns of Table 1.

Another assay concerns Hela. Description: Cell inhibition assay (SRB cell viability), Hela. Format: cell-based. Conditions: Hela cells, 72 h. The method, then: as §2, §3, §1, §4
The next assay concerns HUT. The experiment in a line: Cell inhibition assay (SRB cell viability), HUT. Format: cell-based. How it is done:
as §2, §3, §1, §4

The structures appear in SMILES notation. pIC50: −log10 of the molar value.

As to `N[C@@H](CCCOc1ccc(CNCc2ccc3cc(C(=O)NO)sc3c2)cc1)C(=O)OC1CCCC1` [Example 17, (S)-2-Amino-5-(4-{[(2-hydroxycarbamoyl-benzo[b]thiophen-6-ylmethyl)-amino]-methyl}-phenoxy)-pentanoic acid cyclopentyl ester], the pIC50 in assay [1] is over 7.00; in the assay on U937 (72 h), 5.48 to 6.48; with Hela it was 5.48 to 6.48; with HUT (HUT cells, 72 h), 5.48 to 6.48.

`COc1cc(CNCc2ccc3cc(C(=O)NO)sc3c2)ccc1OCCC[C@H](N)C(=O)OC1CCCC1` [Example 19, (S)-2-Amino-5-(4-{[(2-hydroxycarbamoyl-benzo[b]thiophen-6-ylmethyl)-amino]-methyl}-2-methoxyphenoxy)-pentanoic acid cyclopentyl ester]: the pIC50 is over 7.00 in assay [1]; 5.48 to 6.48 in the assay with U937 (Homo sapiens, U-937, 72 h); 5.48 to 6.48 in the assay on Hela (Homo sapiens, HeLa); 5.48 to 6.48 in the assay with HUT (72 h, HUT cells).

For the compound `CC(=O)N[C@@H](CCCOc1ccc(CNCc2ccc3cc(C(=O)NO)sc3c2)cc1)C(=O)OC1CCCC1` [Example 21, (S)-2-Acetylamino-5-(4-{[(2-hydroxycarbamoyl-benzo[b]thiophen-6-ylmethyl)-amino]-methyl}-phenoxy)-pentanoic acid cyclopentyl ester], the pIC50 was over 7.00 in assay [1]; 5.48 to 6.48 in the assay on U937 (Homo sapiens, U-937, 72 h); 5.48 to 6.48 with Hela (Homo sapiens, HeLa); over 6.48 with HUT (72 h, HUT cells).

For `O=C(NO)c1cc2ccc(CNCc3ccc(OCCC[C@H](NC4CCCCC4)C(=O)OC4CCCC4)cc3)cc2s1` [Example 22, (S)-2-Cyclohexylamino-S-(4-{[(2-hydroxycarbamoyl-benzo[b]thiophen-6-ylmethyl)-amino]-methyl}-phenoxy)-pentanoic acid cyclopentyl ester], the pIC50 in assay [1] is 6.00 to 7.00; in the assay with U937 (Homo sapiens, U-937, 72 h), 5.48 to 6.48; in the assay with Hela (Homo sapiens, HeLa), 5.48 to 6.48; with HUT (72 h, HUT cells) it was 5.48 to 6.48.

For the compound `N[C@H](C(=O)OC1CCCC1)c1ccc(Oc2ccc(CNCc3ccc4cc(C(=O)NO)sc4c3)cc2)cc1` [Example 24, (S)-Amino-[4-(4-{[(2-hydroxycarbamoyl-benzo[b]thiophen-6-ylmethyl)-amino]-methyl}-phenoxy)-phenyl]-acetic acid cyclopentyl ester], the pIC50 in assay [1] was over 7.00; in the assay with U937 (Homo sapiens, U-937, 72 h), over 6.48; in the assay on Hela (Homo sapiens, HeLa) it was 5.48 to 6.48; with HUT (72 h, HUT cells), over 6.48.

For the compound `N[C@@H](Cc1ccc(Oc2ccc(CNCc3ccc4cc(C(=O)NO)sc4c3)cc2)cc1)C(=O)OC1CCCC1` [Example 26, (S)-2-Amino-3-[4-(4-{[(2-hydroxycarbamoyl-benzo[b]thiophen-6-ylmethyl)-amino]-methyl}-phenoxy)-phenyl]-propionic acid cyclopentyl ester], the pIC50 is over 7.00 in assay [1]; over 6.48 in the assay on U937 (Homo sapiens, U-937, 72 h); 5.48 to 6.48 with Hela (Homo sapiens, HeLa); over 6.48 in the assay on HUT (72 h, HUT cells).

Consider `N[C@@H](CC1CCC(Oc2ccc(CNCc3ccc4cc(C(=O)NO)sc4c3)cc2)CC1)C(=O)OC1CCCC1` (stereo partly drawn) [Example 28, 2-(S)-Amino-3-[4-(4-{[(2-hydroxycarbamoyl-benzo[b]thiophen-6-ylmethyl)-amino]-methyl}-phenoxy)-cyclohexyl]-propionic acid cyclopentyl ester], for which the pIC50 in assay [1] was over 7.00; in the assay with U937 (Homo sapiens, U-937, 72 h) it was over 6.48; in the assay with Hela (Homo sapiens, HeLa) it was 5.48 to 6.48; in the assay on HUT (72 h, HUT cells), over 6.48.

Turning to `NC(C(=O)OC1CCCC1)C1CCC(Oc2ccc(CNCc3ccc4cc(C(=O)NO)sc4c3)cc2)CC1` (centres unmarked) [Example 30, Amino-[4-(4-{[(2-hydroxycarbamoyl-benzo[b]thiophen-6-ylmethyl)-amino]-methyl}-phenoxy)-cyclohexyl]-acetic acid cyclopentyl ester], the pIC50 in assay [1] is over 7.00; with U937 (Homo sapiens, U-937, 72 h) it was over 6.48; in the assay on Hela (Homo sapiens, HeLa), 5.48 to 6.48; in the assay with HUT (72 h, HUT cells), over 6.48.
